Results published in US20180168208A1 (priority 2014, published 2018).
Structures can show the parent of a compound that is named as a salt. Where two headings read alike, the source gives them in different places.

Tests used:
Experiment in all cases: cell-based
cat T1R1/T1R3 receptor [1] = target: T1, cat T1R1/T1R3 receptor (Felis catus, UniProt A0ABI7Z2I4)
T1 sequence (A0ABI7Z2I4 171-420): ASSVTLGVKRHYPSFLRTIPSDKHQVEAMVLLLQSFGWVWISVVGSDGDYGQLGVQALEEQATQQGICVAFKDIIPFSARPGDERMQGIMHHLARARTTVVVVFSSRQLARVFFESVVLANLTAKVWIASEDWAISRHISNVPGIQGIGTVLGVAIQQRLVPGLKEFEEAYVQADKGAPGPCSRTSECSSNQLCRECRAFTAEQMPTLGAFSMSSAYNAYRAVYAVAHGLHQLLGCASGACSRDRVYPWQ
T1 sequence (Q49KI5 25-865 E206Q/N523D/F654L partner): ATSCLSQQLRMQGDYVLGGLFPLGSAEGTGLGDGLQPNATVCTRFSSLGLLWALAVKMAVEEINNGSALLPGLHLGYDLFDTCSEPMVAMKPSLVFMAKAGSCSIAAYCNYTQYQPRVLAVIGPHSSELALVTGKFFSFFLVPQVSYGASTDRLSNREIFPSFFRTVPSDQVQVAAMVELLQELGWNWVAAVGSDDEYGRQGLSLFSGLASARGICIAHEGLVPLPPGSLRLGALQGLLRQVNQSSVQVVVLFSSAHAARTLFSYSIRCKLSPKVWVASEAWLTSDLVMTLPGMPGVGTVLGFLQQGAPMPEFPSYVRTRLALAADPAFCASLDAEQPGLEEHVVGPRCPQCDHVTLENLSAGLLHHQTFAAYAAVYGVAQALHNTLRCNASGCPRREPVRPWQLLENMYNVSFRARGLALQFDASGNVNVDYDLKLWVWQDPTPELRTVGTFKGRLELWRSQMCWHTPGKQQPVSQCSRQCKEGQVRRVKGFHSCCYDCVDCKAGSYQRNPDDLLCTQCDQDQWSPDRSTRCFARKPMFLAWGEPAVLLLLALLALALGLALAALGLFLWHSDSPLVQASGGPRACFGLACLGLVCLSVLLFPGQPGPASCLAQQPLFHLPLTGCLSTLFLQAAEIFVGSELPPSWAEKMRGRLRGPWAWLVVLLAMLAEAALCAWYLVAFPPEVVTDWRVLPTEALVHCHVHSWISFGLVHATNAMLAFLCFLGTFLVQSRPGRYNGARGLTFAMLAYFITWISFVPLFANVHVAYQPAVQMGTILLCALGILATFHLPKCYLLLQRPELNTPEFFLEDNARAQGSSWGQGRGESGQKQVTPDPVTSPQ
Method: […] Activation of the T1R1/T1R3 receptor was detected by a change in intracellular calcium levels using a calcium sensitive fluorescent dye. Cells that express T1R3 but not T1R1 were used as a control. A FLIPR® Tetra or a FlexStation® 3 was used for data capture.
In each experiment, serial dilutions of up to 0.1 mM, 1 mM or 10 mM of the nucleotide derivative were added to the T1R1/T1R3-expressing cells.

cat T1R1/T1R3 receptor [2] = target: T1, cat T1R1/T1R3 receptor; remark: listed apart in the source
Outline: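 HEK293 cells stably expressing T1R3 with inducible T1R1, treated with nucleotide derivatives alone or combined with amino acids and/or nucleotides. Activation read as intracellular calcium change by calcium-sensitive fluorescent dye and/or luminescent reporter. Cells expressing T1R3 without T1R1 served as control.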

T1R1/T1R3 receptor = T1R1/T1R3 receptor (Felis catus, UniProt E3UMS2)
Outline: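 HEK293 cells stably expressing T1R3 with inducible T1R1 were given transmembrane compounds in serial dilutions up to 10 mM, alone or with amino acids and/or nucleotides. Receptor activation was read as an intracellular calcium change with a calcium-sensitive fluorescent dye; T1R3-only cells served as control.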

[3] = test compound alone (in buffer), read-out: EC50- alone
[4] = with 20 mM alanine, read-out: EC50- with Ala

Compound | EC50 (cat T1R1/T1R3 receptor [1]; [3]) | Max resp. (ΔF/F) (cat T1R1/T1R3 receptor [2]) | Max. resp. % of IMP (cat T1R1/T1R3 receptor [2]) | Threshold (cat T1R1/T1R3 receptor [2]) | EC50 (cat T1R1/T1R3 receptor [1]; [4]) | EC50 (cat T1R1/T1R3 receptor [2]) | also measured
O=c1[nH]cnc2c1ncn2C1OC(COP(=O)(O)OP(=O)(O)O)C(O)C1O (stereo not shown) [Inosine 5′-disphosphate (IDP) sodium salt] | – | – | – | – | – | – | EC50 (cat T1R1/T1R3 receptor [1]): 650 ± 70 µM
Nc1ncnc2c1ncn2[C@H]1C[C@H](OP(=O)(O)O)[C@@H](COP(=O)(O)O)O1 [2′-deoxyadenosine-3′, 5′-O-bisphosphate] | 20 µM | 0.8 ΔF/F | 76.4 % of IMP | 0.005 mM | – | – | –
Nc1ncnc2c1ncn2C1OC(COP(O)(O)=S)C(O)C1O (stereo not shown) [adenosine 5′-O-thiomonophosphate, Adenosine 5′-O-thiomonophosphate] | > 1000 µM | – | – | – | 60 µM | – | –
C[C@H](N)C(=O)O [alanine] | – | – | – | – | – | 13600 ± 4300 µM | EC50 (cat T1R1/T1R3 receptor [1]; EC50- alone): 13600 µM; EC50 (T1R1/T1R3 receptor; EC50 (effect with 0.2 mM IMP)): 12.3 ± 1.3 mM; EC50 (T1R1/T1R3 receptor; EC50 (mM), +IMP (0.2 mM)): 12.3 mM; Max resp % of Ala, +IMP (0.2 mM) (T1R1/T1R3 receptor; in the presence of 0.2 mM IMP, relative to alanine): 100.0%; Thres (mM), +IMP (0.2 mM) (T1R1/T1R3 receptor; threshold concentration in the presence of 0.2 mM IMP): 3.0 mM
O=c1nc[nH]c2c1ncn2C1O[C@H](COP(=O)(O)OP(=O)(O)OP(=O)(O)O)[C@@H](O)[C@H]1O (stereo partly shown) [inosine triphosphate (ITP) trisodium salt] | – | 0.3 ΔF/F | 25.1 % of IMP | 0.02 mM | 80 ± 10 µM | 80 µM | Activity (cat T1R1/T1R3 receptor [2]): active
